Columns and labels:
[1] = system: ICR mice; assay: Morris water maze test, scopolamine-induced dementia; format: in vivo
Experimental: The deterioration of cognitive ability of Aβ1-42 (Amyloid Beta 1-42) was evaluated in 4-week-old male mice. ICR mice (Bio Link, Eumseong-gun, Chungbuk, Korea) were purchased, adapted to an experimental animal room for one week, and randomly consisted of 6 mice in each group. As experimental groups, a group administered with the Spirulina extract (hereinafter, SM70EE) produced by Example 1 by concentration and a group administered with chlorophyll a were used. As a control group, a group without treating a Spirulina extract, and as a comparative group, a group administered with scopolamine causing dementia and a group administered with donepezil as a dementia therapeutic agent were used. […]
In Experimental Example above, a passive avoidance analysis evaluation test was conducted by applying a Morris's method. […] For adaptation, only the swimming practice was performed for 60 seconds without a platform on the first day of the experiment, a test trial was performed for 4 days in the pool disposed with the platform from the second day, and then escape latency time which was time taken for experimental mice administered with a drug to escape on the platform was measured. […]

[2] = system: ICR mice; assay: Passive avoidance test, scopolamine-induced dementia; format: in vivo
Experimental: The deterioration of cognitive ability of Aβ1-42 (Amyloid Beta 1-42) was evaluated in 4-week-old male mice. ICR mice (Bio Link, Eumseong-gun, Chungbuk, Korea) were purchased, adapted to an experimental animal room for one week, and randomly consisted of 6 mice in each group. As experimental groups, a group administered with the Spirulina extract (hereinafter, SM70EE) produced by Example 1 by concentration and a group administered with chlorophyll a were used. As a control group, a group without treating a Spirulina extract, and as a comparative group, a group administered with scopolamine causing dementia and a group administered with donepezil as a dementia therapeutic agent were used. During the adaptation period, the feed and water were freely supplied without limitation, and the temperature of 22±2° C. and the humidity of 50±10% were maintained, and the contrast was adjusted to a period of 12 hours (09:00 to 21:00).
An avoidance box (40×20×20 cm) of a passive avoidance measuring device was divided into a light box and a dark box, and a door was installed between the rooms so that the experimental mice moved. […]
After 24 hours, the same test was conducted, and the escape latency time while the experimental mice moved was measured. […]

Row | Structure (SMILES) | escape latency time ([1]; 10 mg/kg oral, scopolamine 1 mg/kg s.c.) | latency time ([2]; 10 mg/kg oral, scopolamine 1 mg/kg s.c., vs scopolamine group) | escape latency time ([1]; scopolamine only, 1 mg/kg s.c.) | latency time ([2]; scopolamine only, 1 mg/kg s.c., vs control group)
1 | C=Cc1c(C)c2cc3nc(c4c5[n-]c(cc6nc(cc1[n-]2)C(C)=C6CC)c(C)c5C(=O)[C@@H]4C(=O)OC)[C@@H](CCC(=O)OC/C=C(\C)CCC[C@H](C)CCC[C@H](C)CCCC(C)C)[C@@H]3C.[Mg+2] [chlorophyll a] | decreased | increased |  | 
2 | CN1[C@@H]2C[C@@H](OC(=O)[C@H](CO)c3ccccc3)C[C@H]1[C@@H]1O[C@@H]12 [scopolamine] |  |  | increased | significantly reduced

From patent US20220160798A1 (priority 2019, published 2022)
